From article PMC6981454, “Promising 2,6,9-Trisubstituted Purine Derivatives for Anticancer Compounds: Synthesis, 3D-QSAR, and Preliminary Biological Assays” (International Journal of Molecular Sciences, 2019)
Read-outs that look alike come from different tables or passages of the source.

Assays:
Format in all cases: cell-based, human
[1] = test system: CFPAC-1; assay: MTT cytotoxicity assay, 72 h
Procedure: (§1) In our study, the human cancer cell lines used were CFAPC- 1 (pancreatic adenocarcinoma); NCI-H460 (large cell lung); HL-60 (acute promyelocytic leukaemia); CACO2 (colorectal adenocarcinoma); HCT-116 (colorectal carcinoma); K562 (chronic myeloid leukaemia); MCF-7 (breast adenocarcinoma); and MRC-5 control cells (normal fibroblasts).
(§2) CFAPC-1, NCI-H460 H1975, HL-60, HCT-116, CACO2, K562, MCF-7, and MCR-5 were grown and maintained in RPMI 1640 and DMEM F12 as appropriate with 10% fetal bovine serum, 100 UI/mL penicillin–streptomycin, and cultured al 37 °C in 5% CO2 humidified atmosphere. Control cultures were treated with dimethyl sulfoxide (1%) alone at the same concentration as in the purine derivatives treatment. Cell viability was determined by trypan blue dye exclusion. Cell numbers were counted in hemocytometer by light microscopy.
(§3) Cytotoxicity assays were performed by using the MTT reduction method as described in the literature. Briefly, cancer cell lines were plated in a flat-bottom 96-wells plate at 1 × 10^4 cells per well density. Then, the cells were incubated with synthetized compounds at different concentrations (from 0.1 to 100 µM) in 200 µL of 10% fetal bovine serum-RPMI or EMEM culture medium at 37 °C for 72 h. Then, 10 µL of MTT was added at a final concentration of 0.5 mg/mL, incubated at 37 °C for 4 h, and then solubilized with 10% sodium dodecyl sulphate (SDS) in 0.1 mM HCl and incubated overnight at 37 °C. Formazan formation was measured at 570 nm in a multi-well reader (StatFax 4200).

[2] = test system: HCT-116; assay: MTT cytotoxicity assay, 72 h
Procedure: as §1, §2, §3

[3] = test system: HL-60; assay: MTT cytotoxicity assay, 72 h; conditions: for Experimental pIC50 (HL-60): -logIC50 in molar concentration; for Selectivity Index (SI) MRC-5/HL-60: IC50 in MRC-5 / IC50 in HL-60
Procedure: as §1, §2, §3

[4] = test system: K562; assay: MTT cytotoxicity assay, 72 h; conditions: for IC50: MTT, 72 h, IC50 ± SD; for Selectivity Index (SI) MRC-5/K562: IC50 in MRC-5 / IC50 in K562
Procedure: as §1, §2, §3

[5] = test system: MCF-7; assay: MTT cytotoxicity assay, 72 h; conditions: for IC50: MTT, 72 h, IC50 ± SD; for Selectivity Index (SI) MRC-5/MCF-7: IC50 in MRC-5 / IC50 in MCF-7
Procedure: as §1, §2, §3

[6] = test system: NCI-H460; assay: MTT cytotoxicity assay, 72 h; conditions: for Experimental pIC50 (NCI-H460): -logIC50 in molar concentration; for Selectivity Index (SI) MRC-5/NCI-H460: IC50 in MRC-5 / IC50 in NCI-H460
Procedure: as §1, §2, §3

[7] = test system: CACO2; assay: MTT cytotoxicity assay, 72 h
Procedure: Cytotoxicity assays were performed by using the MTT reduction method as described in the literature [23, 37]. Briefly, cancer cell lines were plated in a flat-bottom 96-wells plate at 1 × 10^4 cells per well density. Then, the cells were incubated with synthetized compounds at different concentrations (from 0.1 to 100 µM) in 200 µL of 10% fetal bovine serum-RPMI or EMEM culture medium at 37 °C for 72 h. Then, 10 µL of MTT was added at a final concentration of 0.5 mg/mL, incubated at 37 °C for 4 h, and then solubilized with 10% sodium dodecyl sulphate (SDS) in 0.1 mM HCl and incubated overnight at 37 °C. Formazan formation was measured at 570 nm in a multi-well reader (StatFax 4200).

[8] = test system: MRC-5; assay: MTT cytotoxicity assay, 72 h, normal control cells; conditions: normal fibroblasts
Procedure: as §1, §2, §3

[9] = test system: HL-60 cells; assay: Cell viability by propidium iodide flow cytometry; conditions: HL-60, 50 μM, 24 h, PI staining
Source text: Next, in order to determinate the cell death type induced by the most promising compounds, we performed a flow cytometry analysis of cell viability in cell line HL-60 treated with the most promising compounds (selected according to their IC50 values and SI). The HL-60 cancer cells were chosen due to their sensitivity to prepared compounds. […] As a preliminary apoptosis filter, propidium iodide (PI) staining was used through flow cytometry analysis which discriminated a population of viable cells impermeable to PI (PI negative) from necrotic cells PI-permeable (PI positive) and apoptotic cells (the difference of the previous two). The results are shown in Figure 7, illustrating that all purine derivatives tested induced apoptosis on HL-60 cells. Around 40% of apoptotic cells were detected in a culture treated with compounds 7a and 7i, 30% by 7e, 7g, and 7h and 70% by 7d and 7j. […] (For dot plots, see Supplementary Information Figures S1–S3.)
Cell viability was analyzed by flow cytometry as previously described. In this assay, after setting the baseline to exclude cell debris, cells impermeable to propidium iodide (PI negative) are considered as viable. Two populations of PI-permeable dead cells are distinguished based on fluorescence intensity, corresponding to either hypodiploid apoptotic cells or necrotic cells with intact DNA. Here, HL60 cells were incubated with concentrations of 50 µM of each compound for 24 h at 37 °C. Cells were harvested and stained with 10 µg/mL of propidium iodide to determine cell viability. Samples containing roughly 1 × 10^4 cells were evaluated by flow cytometry (FACScanto II; Becton Dickinson, Mountain View, CA) and analyzed using FCS Express v6 software. Three independent biological replicates were performed.

[10] = MTT, 72 h, IC50 ± SD, read-out: IC50 HL-60
[11] = MTT, 72 h, IC50 ± SD, read-out: IC50 NCI-H460
[12] = Homo sapiens, CFPAC-1, IC50 ± SD
[13] = Homo sapiens, HCT-116, IC50 ± SD
[14] = Homo sapiens, HL-60, 72 h, MTT, 72 h, IC50 ± SD, read-out: IC50 HL-60
[15] = Homo sapiens, HL-60, -logIC50 in molar concentration, Table S1, read-out: Experimental pIC50 (HL-60) (converted)
[16] = Homo sapiens, NCI-H460, 72 h, MTT, 72 h, IC50 ± SD, read-out: IC50 NCI-H460
[17] = Homo sapiens, Caco-2, IC50 ± SD
[18] = Homo sapiens, NCI-H460, -logIC50 in molar concentration, Table S2, read-out: Experimental pIC50 (NCI-H460) (converted)

Molecule	IC50 ([1]; IC50 ± SD) [µM]	IC50 ([2]; IC50 ± SD) [µM]	Experimental pIC50 (HL-60) ([3]; Table S1) [M]	IC50 [3, 10] [µM]	IC50 [4] [µM]	IC50 [5] [µM]	IC50 [6, 11] [µM]	IC50 ([7]; IC50 ± SD) [µM]	IC50 ([8]; IC50 ± SD) [µM]	IC50 [1, 12] [µM]	IC50 [2, 13] [µM]	IC50 [3, 14] [µM]	IC50 [3, 15] [µM]	IC50 ([4]; Homo sapiens, K562, 72 h) [µM]	IC50 ([5]; Homo sapiens, MCF7, 72 h) [µM]	IC50 [6, 16] [µM]	IC50 [7, 17] [µM]	IC50 ([8]; Homo sapiens, MRC5, IC50 ± SD) [µM]	IC50 [6, 18] [µM]	apoptotic cells [9]	also measured
CCn1cnc2c(-c3ccc(OC(F)(F)F)cc3)nc(NCC3CCCCC3)nc21 [4c, N-(cyclohexylmethyl)-9-ethyl-6-(4-(trifluoromethoxy)phenyl)-9H-purin-2-amine]	67 ± 1	> 50	4.6021	25 ± 5.4	> 25	> 25	64 ± 2	> 100	60 ± 1	–	–	–	–	–	–	–	–	–	–	–	Experimental pIC50 (NCI-H460) ([6]; Table S2): 4.1938 M
CCCn1cnc2c(-c3ccc(OC(F)(F)F)cc3)nc(NC3CCCC3)nc21 [4e, N-cyclopentyl-9-propyl-6-(4-(trifluoromethoxy)phenyl)-9H-purin-2-amine]	> 100	> 50	4.7447	18 ± 4	> 25	> 25	> 100	> 100	> 100	–	–	–	–	–	–	–	–	–	–	–	–
CCCn1cnc2c(-c3ccc(OC(F)(F)F)cc3)nc(NC3CCCCC3)nc21 [4f, N-cyclohexyl-9-propyl-6-(4-(trifluoromethoxy)phenyl)-9H-purin-2-amine]	69 ± 1	> 50	5.0088	9.8 ± 1.5	> 25	> 25	> 100	> 100	68 ± 1	–	–	–	–	–	–	–	–	–	–	–	–
CCCn1cnc2c(-c3ccc(OC(F)(F)F)cc3)nc(NCC3CCCCC3)nc21 [4g, N-(cyclohexylmethyl)-9-propyl-6-(4-(trifluoromethoxy)phenyl)-9H-purin-2-amine]	98 ± 5	> 50	4.6778	21 ± 5	> 25	> 25	72 ± 2	> 100	> 100	–	–	–	–	–	–	–	–	–	–	–	Experimental pIC50 (NCI-H460) ([6]; Table S2): 4.1427 M
CCCn1cnc2c(-c3ccc(OC(F)(F)F)cc3)nc(NC3CCCCCC3)nc21 [4h, N-cycloheptyl-9-propyl-6-(4-(trifluoromethoxy)phenyl)-9H-purin-2-amine]	–	–	–	–	–	–	–	–	–	> 100	> 50	14 ± 1	14	> 25	> 25	> 100	> 100	> 100	–	–	–
O=[N+]([O-])c1ccc(N2CCN(c3nc(Cl)nc4c3ncn4C3CCCC3)CC2)nc1 [7a, 2-Chloro-9-cyclopentyl-6-(4-(5-nitropyridin-2-yl)piperazin-1-yl)-9H-purine]	–	–	–	–	–	–	5.73 ± 0.37	–	–	> 100	6.4 ± 1.3	–	2.1	0.87 ± 0.01	0.95 ± 0.14	< 10	> 100	> 100	5.73	Around 40%	Selectivity Index (SI) MRC-5/HL-60 [3]: > 47.6; Selectivity Index (SI) MRC-5/K562 [4]: > 115; Selectivity Index (SI) MRC-5/MCF-7 [5]: > 105; Selectivity Index (SI) MRC-5/NCI-H460 [6]: > 17.5
Clc1nc(N2CCN(c3ccccn3)CC2)c2ncn(C3CCCC3)c2n1 [7b, 2-Chloro-9-cyclopentyl-6-(4-(pyridin-2-yl)piperazin-1-yl)-9H-purine]	–	–	–	–	–	–	–	–	–	> 100	> 50	> 50	–	3.06 ± 0.54	5.07 ± 0.9	> 100	> 100	> 100	–	–	–
Clc1nc(N2CCN(c3cnccn3)CC2)c2ncn(C3CCCC3)c2n1 [7d, 2-Chloro-9-cyclopentyl-6-(4-(pyrazin-2-yl)piperazin-1-yl)-9H-purine]	–	–	–	–	–	–	–	–	–	> 100	> 50	4.6 ± 0.2	4.6	5.86 ± 1.06	> 12.5	8.25 ± 0.11	> 100	17 ± 1	8.25	~70%	Selectivity Index (SI) MRC-5/HL-60 [3]: 3.7; Selectivity Index (SI) MRC-5/K562 [4]: 2.9; Selectivity Index (SI) MRC-5/NCI-H460 [6]: 2.0
Clc1nc(N2CCC(c3ccccc3)CC2)c2ncn(C3CCCC3)c2n1 [7e, 2-Chloro-9-cyclopentyl-6-(4-phenylpiperidin-1-yl)-9H-purine]	–	–	–	–	–	–	–	–	–	> 100	> 50	3 ± 0.6	3	–	–	11 ± 1	> 100	> 100	11	~30%	Selectivity Index (SI) MRC-5/HL-60 [3]: > 33.3; Selectivity Index (SI) MRC-5/NCI-H460 [6]: > 9.1
Clc1nc(N2CCN(c3ccccc3)CC2)c2ncn(C3CCCC3)c2n1 [7f, 2-Chloro-9-cyclopentyl-6-(4-phenylpiperazin-1-yl)-9H-purine]	–	–	–	–	–	–	–	–	–	> 100	> 50	1.3 ± 0.5	1.3	4.22 ± 0.27	6.13 ± 0.25	6.71 ± 0.23	> 100	> 100	6.71	–	–
Clc1nc(N2CCN(c3ccncc3)CC2)c2ncn(C3CCCC3)c2n1 [7i, 2-Chloro-9-cyclopentyl-6-(4-(pyridin-4-yl)piperazin-1-yl)-9H-purine]	–	–	–	–	–	–	8.54 ± 0.21	–	–	> 100	> 50	3.8 ± 1.5	3.8	9.96 ± 0.93	22 ± 1	< 10	> 100	> 100	8.54	Around 40%	Selectivity Index (SI) MRC-5/HL-60 [3]: > 26.3; Selectivity Index (SI) MRC-5/K562 [4]: > 10; Selectivity Index (SI) MRC-5/MCF-7 [5]: > 4.5; Selectivity Index (SI) MRC-5/NCI-H460 [6]: > 11.7
N.N.[Cl][Pt][Cl] [Cisplatin, reference compound]	3.16 ± 0.1	3.89 ± 1.3	–	6.2 ± 0.2	4.67 ± 0.38	10.9 ± 0.8	4.77 ± 0.13	–	6.78 ± 0.18	–	–	–	–	–	–	–	–	–	–	66%	IC50 ([6]; MTT, 72 h, IC50 ± SD, listed as cisplatin, read-out: IC50 NCI-H460): 4.8 µM
N-cycloheptyl-9-ethyl-6-(4-(trifluoromethoxy)phenyl)-9H-purin-2-amine [4d]	> 100	> 50	4.6778	21 ± 1	> 25	> 25	> 100	> 100	> 100	–	–	–	–	–	–	–	–	–	–	–	–
N-cyclohexyl-9-ethyl-6-(4-(trifluoromethoxy)phenyl)-9H-purin-2-amine [4b]	> 100	> 50	–	> 50	> 25	> 25	> 100	> 100	> 100	–	–	–	–	–	–	–	–	–	–	–	–
